Assay results published in US20180043017A1, “PHARMACEUTICAL COMPOSITIONS COMPRISING 0.5 MG DOSE OF SYNTHETIC HUMAN PEPTIDES FOR TREATING SYSTEMIC LUPUS ERYTHEMATOSUS” (XTL Biopharmaceuticals Ltd., priority 2016, published 2018).
Where two headings read alike, the source gives them in different places.

Assays:
[1] = system: SLE patients; conditions: in vivo
Description: (§1) The PRELUDE Study was a phase 2, multinational, multicenter, randomized, double-blind, placebo-controlled, multiple-dose, parallel group study to assess the efficacy, tolerability and safety of three doses of subcutaneously injected Edratide in SLE patients.
(§2) The total study treatment duration was 26 weeks. Scheduled visits were performed at screening, baseline and at weeks 4, 8, 12, 16, 20, 24, and 26 (termination). […] Non-compliance with the tapering down scheme was not regarded as a protocol violation. During the entire course of the study it was allowed to increase the steroid prednisolone dose to up to 60 mg. Use of intravascular/intramuscular steroid was considered a protocol violation. […] Edratide and CAPTISOL® pharmacokinetic (PK) profiles were characterized in a small group of patients. PK assessment of CAPTISOL® for all four treatment groups was conducted following the first dose and Weeks 12 and 26 doses. Disease and drug related immunology parameters were tested at baseline and at several time points thereafter.
(§3) The co-primary end-points presented in their hierarchical order below were: • Change from baseline to last observed value (LOV) in SLEDAI 2K score (Landmark Analysis.) • Adjusted Mean SLEDAI 2K (AMS). AMS represents the time weighted average of disease activity as measured by SLEDAI 2K score [area under the curve (AUC) of SLEDAI 2K].
(§4) Secondary End-Points: • BILAG proportion of responders. BILAG responders were defined as: • a. Non Responder (NR)—same BILAG score in Last Observed Value (LOV) as in baseline in all systems or new A or B in at least one system compared to baseline (other systems may improve or deteriorate). • b. […] Change from baseline to LOV • SF-36 (QoL) Physical component Score—Change from Baseline to LOV • Time Weighted Average (TWA) on cumulative steroids dose with p.o. administration.
(§5) Exploratory End-Points: • Primary end-point sensitivity analysis to steroid increase (excluding the observations following steroid increase) • Proportions of Zero SLEDAI Score at LOV • Time to Zero SLEDAI Score • BILAG Total Score—Change from Baseline to LOV
(§6) Flares Analysis: • Time to medicinal flare • Time to new BILAG A or at least two new B's • Time to new BILAG A or at least two new B's (excluding persistent activity) • Steroid dose (PO)—Change from baseline to LOV • PGA—Physician's Global Assessment

[2] = system: SLE patients; conditions: cited from earlier work; for incidence of adverse events (AEs): placebo 75%
[3] = system: SLE patients; conditions: cited from earlier work
[4] = system: peripheral blood lymphocytes (PBL) of SLE patients; conditions: cited from earlier work
[5] = system: mice afflicted with spontaneous or experimental SLE; conditions: mouse, in vivo; cited from earlier work
[6] = system: SLE patients; assay: PRELUDE phase 2 study, three doses of subcutaneously injected Edratide, 26 weeks; conditions: for AE incidence: placebo 79.3%; for early withdrawal due to AE: placebo 2.3%
Description: as §1, §2, §3, §4, §5, §6

SMILES: CC[C@H](C)[C@H](NC(=O)[C@H](Cc1c[nH]c2ccccc12)NC(=O)[C@H](CO)NC(=O)[C@H](Cc1c[nH]c2ccccc12)NC(=O)[C@H](Cc1ccc(O)cc1)NC(=O)[C@H](Cc1ccc(O)cc1)NC(=O)CN)C(=O)C[C@@H](CCCNC(=N)N)C(=O)N[C@@H](CCC(N)=O)C(=O)N1CCC[C@H]1C(=O)N1CCC[C@H]1C(=O)NCC(=O)N[C@@H](CCCCN)C(=O)NCC(=O)N[C@@H](CCC(=O)O)C(=O)N[C@@H](CCC(=O)O)C(=O)N[C@@H](Cc1c[nH]c2ccccc12)C(=O)N[C@H](C(=O)NCC(=O)O)[C@@H](C)CC (stereo in doubt) [Edratide, H-Gly-Tyr-Tyr-Trp-Ser-Trp-Ile-Arg-Gln-Pro-Pro-Gly-Lys-Gly-Glu-Glu-Trp-Ile-Gly-OH]
- subjects with herpes simplex [1]: 8 subjects
- subjects with herpes viral infections [1]: 11 subjects
- subjects with herpes zoster [1]: 3 subjects
- increase of total SLEDAI-2K score in one subject ([2]; 0.5 mg group, Week 4 after dosing, not confirmed as lupus flare): 2 to 10 points
- change of total SLEDAI-2K score ([2]; any subject during the study, except one subject in the 0.5 mg group): No noteworthy change
- incidence of adverse events (AEs) ([2]; single sc injection 0.5 mg, % of the subjects): 33%
- incidence of adverse events (AEs) ([2]; single sc injection 1 mg): 67%
- incidence of adverse events (AEs) ([2]; single sc injection 2.5 mg): 80%
- subjects with increase in total SLEDAI-2K score of 0-3 points ([3]; 0.5 mg group): Two
- subjects with increase in total SLEDAI-2K score of 0-3 points ([3]; 2.5 mg group): 2 subjects
- overall incidence of AEs between all treatment groups ([3]; 0.5, 1 or 2.5 mg sc twice weekly for 4 weeks vs placebo): no prominent difference
- severity of injection site reactions ([3]; all injection site reactions, majority resolved on day of injection): mild
- subjects reporting AEs during 8-week follow-up period (off-drug) ([3]; all treatment groups): Approximately 50%
- adjusted mean SLEDAI (AMS) score change, baseline to termination visit ([3]; all treatment groups, decreased (improved)): −0.1 to −1.5 points
- trend in mean group total BILAG score ([3]; any treatment group): No trend
- SAE throughout the study ([3]; in vivo): No SAE was reported
- incidence of AEs during 8-week follow-up period (off-drug), active groups vs placebo ([3]; in vivo): no prominent difference
- proliferative response of PBL of SLE patients to the human anti-DNA 16/6Id mAB [4]: inhibit the proliferative response
- disease manifestations of mice afflicted with spontaneous or experimental SLE [5]: ameliorate disease manifestations
- Serious Adverse Events (SAEs), number of subjects ([6]; 0.5 mg): 6 subjects
- change in SF-36 mental score compared to placebo ([6]; 0.5 mg): slightly better
- change in SF-36 physical score compared to placebo ([6]; 0.5 mg): opposite trend
- early withdrawal due to AE, number of subjects ([6]; 0.5 mg): 5 subjects
- post hoc analysis on BILAG responders, system improved ([6]; 0.5 mg): improvement mainly in the cutaneous system
- subjects who prematurely terminated the study ([6]; 0.5 mg (84 randomized)): Thirteen
- deaths during the study ([6]; 0.5 mg group): One
- relation of death to study drug as classified by investigators ([6]; 0.5 mg group, most probably septic shock): not related to the study drug
- AE incidence ([6]; 0.5 mg weekly): 82.1%
- BILAG substantial responders ([6]; 0.5 mg, ITT, LOV vs baseline, placebo 22%, p=0.03): 36%
- subjects with medicinal flare ([6]; 0.5 mg, ITT, post hoc, placebo 29%, p=0.039): 17%
- BILAG substantial response odds ratio (OR) vs placebo ([6]; 0.5 mg, ITT, p=0.03): 2.09
- medicinal flare OR vs placebo ([6]; 0.5 mg, ITT, p=0.039): 0.43
- BILAG substantial responders ([6]; 0.5 mg, no steroids at baseline, placebo 13%, p=0.05): 54%
- early withdrawal due to AE ([6]; 0.5 mg): 6.0%
- Serious Adverse Events (SAEs) incidence ([6]; 0.5 mg, placebo 10.3%): 7.1%
- Serious Adverse Events (SAEs), number of subjects ([6]; 1.0 mg): 10 subjects
- early withdrawal due to AE, number of subjects ([6]; 1.0 mg): 3 subjects
- subjects who prematurely terminated the study ([6]; 1.0 mg (87 randomized)): 13 subjects
- subjects with zoster ([6]; 1 mg group): 2 subjects
- AE incidence ([6]; 1 mg weekly): 77%
- proportion of BILAG substantial responders compared to placebo ([6]; 1 mg, lesser extent than 0.5 mg): trend toward increasing the proportion of substantial responders
- BILAG substantial response OR vs placebo ([6]; 1 mg, p=0.07 without correction for multiple comparison): 1.85
- early withdrawal due to AE ([6]; 1.0 mg): 3.4%
- Serious Adverse Events (SAEs) incidence ([6]; 1.0 mg, placebo 10.3%): 11.5%
- Serious Adverse Events (SAEs), number of subjects ([6]; 2.5 mg): 8 subjects
- early withdrawal due to AE, number of subjects ([6]; 2.5 mg): 3 subjects
- subjects who prematurely terminated the study ([6]; 2.5 mg (82 randomized)): 11 subjects
- AE incidence ([6]; 2.5 mg weekly): 75.6%
- early withdrawal due to AE ([6]; 2.5 mg): 3.7%
- Serious Adverse Events (SAEs) incidence ([6]; 2.5 mg, placebo 10.3%): 9.8%
- cSRI positive responders ([6]; ITT (FIG. 4), placebo 20%, p=0.058): 34%
- safety signal from AEs analysis and additional safety data ([6]; all Edratide doses, no clear dose response): no significant safety signal
- co-primary endpoints (change in SLEDAI 2K score baseline to LOV; AMS), active groups vs placebo ([6]; any of the active treatment groups): no differences
- SF-36 mental or physical scores, differences between treatment groups ([6]; in vivo): No clinically or statistically significant differences
- cumulative change in steroid dose throughout the study, differences between treatment groups ([6]; in vivo): No clinically or statistically significant differences
- early terminations due to AEs, Edratide vs placebo ([6]; in vivo): more often
- SAE incidence ([6]; pooled Edratide group, placebo 10.3%): 9.5%
- BILAG substantial response OR vs placebo ([6]; prednisolone dose <20 mg at baseline, p=0.007): 2.75
- BILAG substantial responders ([6]; prednisolone dose <20 mg at baseline, placebo 19%, p=0.007 (FIG. 2B)): 40%
- mean reduction from baseline SLEDAI-2K score ([6]; regardless of treatment): about 35%
- BILAG substantial responders ([6]; seropositive patients (anti-DNA>30 IU), placebo 26% (FIG. 2C)): 46%
- BILAG non-responders ([6]; seropositive patients (anti-DNA>30 IU), placebo 68%, p=0.05): 42%
